Results taken from patent publication US10202658B2, “Methods for determining hypersusceptibility of HIV-1 to non-nucleoside reverse transcriptase inhibitors” (Monogram Biosciences, Inc., priority 2005, dated 2019).

Assays:
Format in all cases: cell-based
[1] = test system: HIV-1, RT mutations: T215Y and 2 TAMs and V118I; experiment: PhenoSense resistance test vector assay, clinical isolates with T215Y and 2 TAMs and V118I; settings: share of samples designated hypersusceptible
Experimental: (§1) In preferred embodiments, the phenotypic analysis of NNRTI hypersusceptibility is performed using PHENOSENSE™ (ViroLogic Inc., South San Francisco, Calif.). See Petropoulos et al., 2000, Antimicrob. Agents Chemother. 44:920-928; U.S. Pat. Nos. 5,837,464 and 6,242,187. PHENOSENSE™ is a phenotypic assay that achieves the benefits of phenotypic testing and overcomes the drawbacks of previous assays. Because the assay has been automated, PHENOSENSE™ provides high throughput methods under controlled conditions for determining NNRTI resistance, susceptibility, or hypersusceptibility of a large number of individual viral isolates.
(§2) The assay can be performed by first co-transfecting host cells with RTV DNA and a plasmid that expresses the envelope proteins of another retrovirus, for example, amphotropic murine leukemia virus (MLV). Following transfection, viral particles can be harvested from the cell culture and used to infect fresh target cells in the presence of varying amounts of anti-viral drug(s). The completion of a single round of viral replication in the fresh target cells can be detected by the means for detecting replication contained in the vector. In a preferred embodiment, the completion of a single round of viral replication results in the production of luciferase. By monitoring the amount of, e.g., luciferase activity in the presence of the varying amounts of antiviral drug(s), a resistance curve can be constructed by plotting luciferase activity versus drug concentration. The susceptibility of an HIV, or population of HIV, can be determined by measuring the concentration of antiviral drug at which the luciferase activity detected is half-maximal. This number, the IC50, provides a standard and convenient measure of drug resistance.
(§3) Patient-derived segment(s) corresponding to the HIV protease and reverse transcriptase coding regions were amplified by the reverse transcription-polymerase chain reaction method (RT-PCR) using viral RNA isolated from viral particles present in the plasma or serum of HIV-infected individuals as follows. […]

[2] = test system: HIV-1 NL4-3 SDM, K65R in reverse transcriptase; experiment: NNRTI susceptibility of site-directed mutant (SDM) bearing only K65R in NL4-3 background; settings: mean+/-SD of 18 replicates, p<0.00001 versus reference
Experimental: as §1
as §2, with “By monitoring the amount of, e.g., luciferase activity in the presence of the varying amounts of antiviral drug(s), a resistance curve can be constructed by plotting luciferase activity versus drug concentration.” left out, “This number, the IC50, provides a standard and convenient measure of drug resistance.” left out
(§4) Resistance tests were carried out with resistance test vectors using two host cell types. […] The resistance test vector viral particles were then used to infect a second host cell (the target host cell) in which the expression of the indicator gene is measured.
(§5) The amount of luciferase activity detected in infected cells is used as a direct measure of “infectivity,” i.e., the ability of the virus to complete a single round of replication. Thus, drug resistance or sensitivity can be determined by plotting the amount of luciferase activity produced by patient derived viruses in the presence of varying concentrations of the antiviral drug. […]

[3] = test system: HIV-1, RT mutations: 1 NAM; experiment: PhenoSense resistance test vector assay, clinical isolates with 1 NAM; settings: share of samples designated hypersusceptible
Experimental: as §1, §2, §3

[4] = test system: HIV-1 NL4-3 SDM, M184V in reverse transcriptase; experiment: NNRTI susceptibility of site-directed mutant (SDM) bearing only M184V in NL4-3 background; settings: mean+/-SD of 17 replicates, p<0.00001 versus reference
Experimental: as §1
as §2, with “By monitoring the amount of, e.g., luciferase activity in the presence of the varying amounts of antiviral drug(s), a resistance curve can be constructed by plotting luciferase activity versus drug concentration.” left out, “This number, the IC50, provides a standard and convenient measure of drug resistance.” left out
as §4, §5

| SMILES | % IC50 0.4 fold < WT [1] | FC (fold change in IC50) [2] | % IC50 0.4 fold < WT [3] | FC (fold change in IC50) [4] |
| --- | --- | --- | --- | --- |
| CC(C)Nc1cccnc1N1CCN(C(=O)c2cc3cc(NS(C)(=O)=O)ccc3[nH]2)CC1 [DLV, delavirdine] | 63.8% | 0.54+/−0.03 | 13.2% | 0.65+/−0.05 |
| O=C1Nc2ccc(Cl)cc2[C@@](C#CC2CC2)(C(F)(F)F)O1 [EFV, efavirenz] | 39.6% | 0.56+/−0.02 | 17.8% | 0.65+/−0.03 |
| Cc1ccnc2c1NC(=O)c1cccnc1N2C1CC1 [NVP, nevirapine] | 27.1% | 0.53+/−0.05 | 18.0% | 0.67+/−0.05 |
